In the supplement of paper PMC10307832:

What was measured:
Assay in all cases: relative viability (nuclei count vs DMSO), 5 days (fraction); higher = more cells survive
Cediranib + Palbociclib = compound: COc1cc2c(Oc3ccc4[nH]c(C)cc4c3F)ncnc2cc1OCCCN1CCCC1 [Cediranib] + CC(=O)c1c(C)c2cnc(Nc3ccc(N4CCNCC4)cn3)nc2n(C2CCCC2)c1=O [Palbociclib] (partner 0.5 µM)
Outline: (§1)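 Medians of duplicate plates are given as relative viability. That measure is the nuclei count in treated wells divided by the count in vehicle wells. Counts were taken on 4× images of lung cancer cell lines in 1536-well plates, 5 days after pin-tool dosing the day after seeding with one drug alone or a fixed anchor-drug dose plus five library-drug doses (not always all listed) in √10 steps.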

Cediranib + Luminespib = compound: COc1cc2c(Oc3ccc4[nH]c(C)cc4c3F)ncnc2cc1OCCCN1CCCC1 [Cediranib] + CCNC(=O)c1noc(-c2cc(C(C)C)c(O)cc2O)c1-c1ccc(CN2CCOCC2)cc1 [Luminespib] (partner 0.01 µM)
Outline: as §1

Decitabine + Dasatinib = compound: Nc1ncn([C@H]2C[C@H](O)[C@@H](CO)O2)c(=O)n1 [Decitabine] + Cc1nc(Nc2ncc(C(=O)Nc3c(C)cccc3Cl)s2)cc(N2CCN(CCO)CC2)n1 [Dasatinib] (partner 0.075 µM)
Outline: as §1

[1] = compound: O=C(C[C@H]1NCCC[C@@H]1O)Cn1cnc2cc(Br)c(Cl)cc2c1=O (racemic) [Halofuginone] + Nc1nc2[nH]cc(CCc3ccc(C(=O)N[C@@H](CCC(=O)O)C(=O)O)cc3)c2c(=O)[nH]1 [Pemetrexed] (partner 0.2 µM)
Outline: as §1

Cell Line | relative viability (Cediranib + Palbociclib; first compound 0.04 µM) | relative viability (Cediranib + Palbociclib; first compound 0.1265 µM) | relative viability (Cediranib + Palbociclib; first compound 0.4 µM) | relative viability (Cediranib + Palbociclib; first compound 1.265 µM) | relative viability (Cediranib + Palbociclib; first compound 4 µM) | relative viability (Cediranib + Luminespib; first compound 0.04 µM) | relative viability (Cediranib + Luminespib; first compound 0.4 µM) | relative viability (Cediranib + Luminespib; first compound 1.265 µM) | relative viability (Cediranib + Luminespib; first compound 4 µM) | relative viability (Decitabine + Dasatinib; first compound 0.04 µM) | relative viability (Decitabine + Dasatinib; first compound 0.1265 µM) | relative viability (Decitabine + Dasatinib; first compound 0.4 µM) | relative viability (Decitabine + Dasatinib; first compound 1.265 µM) | relative viability (Decitabine + Dasatinib; first compound 4 µM) | relative viability ([1]; first compound 0.001 µM) | relative viability ([1]; first compound 0.003162 µM) | relative viability ([1]; first compound 0.01 µM) | relative viability ([1]; first compound 0.03162 µM) | relative viability ([1]; first compound 0.1 µM) | relative viability (Cediranib + Luminespib; first compound 0.1265 µM)
HOP-62 | 0.482 | 0.517 | 0.409 | 0.426 | 0.486 | 1.01 | 0.79 | 0.949 | 0.94 | 0.634 | 0.622 | 0.284 | 0.14 | 0.147 | 0.326 | 0.293 | 0.333 | 0.306 | 0.295 | 
LC-2-ad | 0.527 | 0.55 | 0.456 | 0.494 | 0.399 | 1.05 | 0.99 | 1.08 | 0.772 | 0.416 | 0.603 | 0.404 | 0.262 | 0.261 | 0.273 | 0.305 | 0.251 | 0.246 | 0.269 | 1.06
LCLC-97TM1 | 0.277 |  | 0.194 | 0.211 | 0.277 | 0.918 | 0.787 | 0.771 | 0.842 | 0.535 | 0.507 | 0.42 | 0.222 | 0.119 | 0.183 | 0.156 | 0.189 | 0.16 | 0.153 | 0.776
LCLC-103H | 0.494 | 0.47 | 0.511 | 0.469 | 0.521 | 0.931 | 0.952 | 1 | 0.894 | 0.507 | 0.57 | 0.457 | 0.337 | 0.374 | 0.479 | 0.362 | 0.455 | 0.443 | 0.498 | 1.05
LK-2 | 0.998 | 0.693 | 0.687 | 0.764 | 0.724 | 0.217 | 0.196 | 0.159 | 0.188 | 0.406 | 0.445 | 0.227 | 0.266 | 0.301 | 0.25 | 0.212 | 0.294 | 0.249 | 0.241 | 0.16
LOU-NH91 | 0.55 | 0.561 | 0.51 | 0.513 | 0.533 | 0.354 | 0.286 | 0.314 | 0.338 | 0.43 | 0.551 | 0.627 | 0.491 | 0.519 | 0.405 | 0.391 | 0.425 | 0.4 | 0.403 | 0.272
LU99A | 0.422 |  | 0.361 | 0.408 | 0.518 | 0.301 | 0.252 | 0.269 | 0.256 | 0.508 | 0.615 | 0.653 | 0.481 | 0.373 | 0.218 | 0.157 | 0.16 | 0.163 | 0.181 | 0.255
LXF-289 | 0.617 |  | 0.569 | 0.566 | 0.609 | 0.719 | 0.587 | 0.7 | 0.55 | 0.201 | 0.193 | 0.129 | 0.118 | 0.0831 | 0.913 | 0.972 | 0.849 | 0.864 | 0.788 | 0.52
NCI-H23 | 0.585 | 0.601 | 0.547 | 0.429 | 0.56 | 0.192 | 0.213 | 0.253 | 0.238 | 0.689 | 0.653 | 0.356 | 0.271 | 0.192 | 0.637 | 0.582 | 0.494 | 0.521 | 0.495 | 0.218
NCI-H322M | 0.46 | 0.589 | 0.464 | 0.492 | 0.524 | 0.982 | 0.826 | 0.831 | 0.771 | 0.246 | 0.327 | 0.299 | 0.285 | 0.349 | 0.633 | 0.63 | 0.554 | 0.586 | 0.398 | 1.15
NCI-H358 | 0.142 | 0.177 | 0.129 | 0.13 | 0.14 | 0.257 | 0.381 | 0.328 | 0.364 | 0.255 | 0.203 | 0.216 | 0.137 | 0.153 | 0.171 | 0.167 | 0.167 | 0.154 | 0.138 | 0.426
NCI-H441 | 0.202 | 0.258 | 0.22 | 0.205 | 0.275 | 0.471 | 0.273 | 0.341 | 0.279 | 0.335 | 0.266 | 0.26 | 0.211 | 0.206 | 0.28 | 0.263 | 0.205 | 0.261 | 0.246 | 
NCI-H460 | 0.196 | 0.175 | 0.21 | 0.161 | 0.202 | 0.0397 | 0.0301 | 0.0321 | 0.0373 | 0.453 | 0.682 | 0.341 | 0.239 | 0.183 | 0.0584 | 0.0659 | 0.0638 | 0.0536 | 0.0574 | 0.0286
NCI-H596 |  |  |  |  |  | 0.709 | 0.98 |  | 0.955 | 0.59 | 0.585 |  | 0.508 | 0.435 | 0.514 | 0.506 | 0.468 | 0.511 | 0.451 | 1.06
NCI-H727 | 0.649 | 0.736 | 0.703 | 0.616 | 0.644 |  | 0.511 | 0.463 | 0.395 | 0.397 | 0.458 | 0.338 | 0.334 | 0.34 |  |  |  |  |  | 
NCI-H1563 |  |  |  |  |  | 0.513 | 0.541 | 0.559 | 0.601 | 0.447 | 0.462 | 0.584 | 0.485 | 0.499 | 0.782 | 0.788 | 0.825 | 0.685 | 0.585 | 0.456
NCI-H1623 |  |  |  |  |  | 0.528 | 0.425 | 0.457 | 0.526 | 0.464 | 0.494 | 0.461 | 0.467 | 0.514 |  |  |  |  |  | 
NCI-H1648 | 0.28 | 0.242 | 0.287 | 0.307 | 0.633 |  |  |  |  |  |  |  |  |  | 0.666 | 0.732 | 0.92 | 0.796 | 0.91 | 
